From ChEMBL document CHEMBL3091331, “Aminothiazole-featured pirinixic acid derivatives as dual 5-lipoxygenase and microsomal prostaglandin E2 synthase-1 inhibitors with improved potency and efficiency in vivo” (J Med Chem, 2013)
The source made the active and inactive calls. The calls are words filed in the database; no cut-off is given here.

Key:
[1] = molecular target: T1, Polyunsaturated fatty acid 5-lipoxygenase (Homo sapiens, UniProt P09917); assay: Inhibition of 5-lipoxygenase in A23187-stimulated human polymorphonuclear leukocytes using arachidonic acid as substrate incubated 15 mins prior to substrate addition measured after 10 mins by HPLC analysis
T1 sequence (P09917 whole entry): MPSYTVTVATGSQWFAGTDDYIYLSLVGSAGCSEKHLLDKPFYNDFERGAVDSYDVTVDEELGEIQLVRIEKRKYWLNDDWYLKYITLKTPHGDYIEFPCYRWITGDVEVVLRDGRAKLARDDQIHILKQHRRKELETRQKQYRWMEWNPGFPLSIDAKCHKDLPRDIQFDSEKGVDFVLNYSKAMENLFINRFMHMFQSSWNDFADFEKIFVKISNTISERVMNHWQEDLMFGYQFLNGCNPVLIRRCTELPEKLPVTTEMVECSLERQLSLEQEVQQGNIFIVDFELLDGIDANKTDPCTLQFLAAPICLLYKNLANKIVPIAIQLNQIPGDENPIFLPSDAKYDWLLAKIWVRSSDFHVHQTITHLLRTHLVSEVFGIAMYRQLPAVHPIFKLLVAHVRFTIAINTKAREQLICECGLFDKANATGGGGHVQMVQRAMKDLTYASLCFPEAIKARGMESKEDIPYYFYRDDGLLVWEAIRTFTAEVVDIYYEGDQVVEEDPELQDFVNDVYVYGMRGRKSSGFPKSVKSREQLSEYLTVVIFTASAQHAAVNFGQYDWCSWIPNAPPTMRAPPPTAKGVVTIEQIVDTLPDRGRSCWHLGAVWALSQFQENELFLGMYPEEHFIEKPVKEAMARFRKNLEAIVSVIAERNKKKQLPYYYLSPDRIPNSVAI

[2] = molecular target: T1, Polyunsaturated fatty acid 5-lipoxygenase; assay: Inhibition of human recombinant 5-lipoxygenase expressed in Escherichia coli BL21 using arachidonic acid as substrate incubated 5 to 10 mins prior to substrate addition measured after 10 mins by HPLC analysis
Prostaglandin E synthase [3] = molecular target: T2, Prostaglandin E synthase (Homo sapiens, UniProt O14684); assay: Inhibition of mPGES-1 from human A549 cell microsomal membranes using PGH2 as substrate incubated 15 mins prior to substrate addition measured after 1 min by RP-HPLC analysis
T2 sequence (O14684 whole entry): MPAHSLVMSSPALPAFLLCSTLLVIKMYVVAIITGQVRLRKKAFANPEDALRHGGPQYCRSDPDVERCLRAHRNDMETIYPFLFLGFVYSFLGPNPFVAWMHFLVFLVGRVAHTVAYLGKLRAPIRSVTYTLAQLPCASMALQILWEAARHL

[4] = molecular target: T3, Polyunsaturated fatty acid 5-lipoxygenase (Homo sapiens) (UniProt P09917); assay: Ratio of IC50 for human recombinant 5-lipoxygenase expressed in Escherichia coli BL21 to IC50 for 5-lipoxygenase in human PMNL cells
T3 sequence (whole entry): T1 sequence (P09917 whole entry)

[5] = molecular target: T1, Polyunsaturated fatty acid 5-lipoxygenase; assay: Inhibition of 5-lipoxygenase in human polymorphonuclear leukocytes; type: cell-based
[6] = molecular target: T3, Polyunsaturated fatty acid 5-lipoxygenase (Homo sapiens); assay: Inhibition of human recombinant 5-lipoxygenase expressed in Escherichia coli BL21 using arachidonic acid as substrate at 1 uM incubated 5 to 10 mins prior to substrate addition measured after 10 mins by HPLC analysis
Mus musculus [7] = assay: Antiinflammatory activity in CD-1 mouse peritonitis model assessed as reduction in vascular permeability at 1 mg/kg, ip administered 30 mins prior to zymosan-challenge measured after 4 hrs relative to vehicle-treated control; type: functional; conditions: CD-1, ip, route intraperitoneal
Mus musculus [8] = assay: Reduction of PGE2 biosynthesis in CD-1 mouse peritonitis model at 1 mg/kg, ip administered 30 mins prior to zymosan-challenge measured after 4 hrs by RIA (reference value: 1.46 +/- 0.08 ng/ml); type: functional, organism-based; set-up: dose 1 mg/kg
Mus musculus [9] = assay: Antiinflammatory activity in CD-1 mouse peritonitis model assessed as reduction in neutrophil infiltration at 1 mg/kg, ip administered 30 mins prior to zymosan-challenge measured after 4 hrs by spectrophotometry relative to vehicle-treated control; type: functional; conditions: CD-1, ip, route intraperitoneal
Mus musculus [10] = assay: Reduction of LTC4 formation in CD-1 mouse peritonitis model at 1 mg/kg, ip administered 30 mins prior to zymosan-challenge measured after 30 mins by EIA relative to vehicle-treated control; type: functional; conditions: CD-1, ip, route intraperitoneal
Mus musculus [11] = assay: Antiinflammatory activity in CD-1 mouse peritonitis model assessed as reduction in myeloperoxidase activity at 1 mg/kg, ip administered 30 mins prior to zymosan-challenge measured after 4 hrs by spectrophotometry relative to vehicle-treated control; type: functional; conditions: CD-1, ip, route intraperitoneal
Prostaglandin E synthase [12] = molecular target: T2, Prostaglandin E synthase; assay: Inhibition of mPGES-1 (unknown origin)
[13] = test system: Radical scavenging activity; assay: Antioxidant activity assessed as DPPH radical scavenging activity at 25 to 100 uM after 30 mins; type: functional

| IC50 [1] | IC50 [2] | IC50 (Prostaglandin E synthase [3]) | Structure (SMILES) | further results |
| --- | --- | --- | --- | --- |
| 1500 nM | 2500 nM | 1800 nM | CCCCCCC(Sc1nc(Cl)cc(Nc2nc(-c3ccc(F)cc3F)cs2)n1)C(=O)O (centres undefined) |  |
| > 10000 nM | > 10000 nM | 2300 nM | O=C(O)CSc1nc(Cl)cc(Nc2nc(-c3ccc(Cl)cc3)cs2)n1 |  |
| 1500 nM | 2300 nM | 1600 nM | CCCCCCC(Sc1nc(Cl)cc(Nc2nc(-c3ccc(F)c(F)c3)cs2)n1)C(=O)O (centres undefined) |  |
| 400 nM | 2300 nM | 400 nM | CCCCCCC(Sc1nc(Cl)cc(Nc2nc(-c3ccc4c(c3)CCCC4)cs2)n1)C(=O)O (centres undefined) |  |
| 300 nM | 700 nM | 800 nM | CCCCCCC(Sc1nc(Cl)cc(Nc2nc(-c3ccc(Br)cc3)cs2)n1)C(=O)O (centres undefined) |  |
| 400 nM | 700 nM | 500 nM | O=C(O)C(Sc1nc(Cl)cc(Nc2nc(-c3ccc(Cl)cc3)cs2)n1)c1cccc2ccccc12 (centres undefined) |  |
| 600 nM | 1200 nM | 400 nM | CCCCCCC(Sc1nc(Cl)cc(Nc2nc(-c3ccc(C(F)(F)F)cc3)cs2)n1)C(=O)O (centres undefined) |  |
| 3600 nM | 6600 nM | 1400 nM | CCC(Sc1nc(Cl)cc(Nc2nc(-c3ccc(Cl)cc3)cs2)n1)C(=O)O (centres undefined) |  |

More lines, now with the values behind:

| Structure (SMILES) | IC50 [1] | IC50 [2] | IC50 (Prostaglandin E synthase [3]) | further results |
| --- | --- | --- | --- | --- |
| CCCCCCC(Sc1nc(Cl)cc(Nc2nc3c(s2)CCc2cc(OC)ccc2-3)n1)C(=O)O (centres undefined) | 200 nM | 1900 nM | 1900 nM | Ratio IC50 [4]: 8 |
| CCC(Sc1nc(Cl)cc(Nc2nc(-c3ccc4ccccc4c3)cs2)n1)C(=O)O (centres undefined) | 2900 nM | 2000 nM | 1400 nM |  |
| CCCCCCC(Sc1nc(Cl)cc(Nc2ccc(-c3ccccc3)cc2)n1)C(=O)O (centres undefined) |  |  |  | IC50 [5]: 730 nM |
| CCCCCCC(Sc1nc(Cl)cc(Nc2nc(-c3ccc(-c4ccccc4)cc3)cs2)n1)C(=O)O (centres undefined) | 300 nM | 600 nM | 500 nM |  |
| CCCCC(Sc1nc(Cl)cc(Nc2nc(-c3ccc(Cl)cc3)cs2)n1)C(=O)O (centres undefined) | 900 nM | 3800 nM | 1200 nM |  |
| CC(C)c1ccc2c(c1)c(SC(C)(C)C)c(CC(C)(C)C(=O)O)n2Cc1ccc(Cl)cc1 |  |  |  | inhibition [6]: inactive; inhibition in vivo at 1 mg/kg (Mus musculus [7]): 76%; inhibition (Mus musculus [8]): inactive; inhibition in vivo at 1 mg/kg (Mus musculus [9]): 34%; inhibition in vivo at 1 mg/kg (Mus musculus [10]): 94%; inhibition in vivo at 1 mg/kg (Mus musculus [11]): 18% |
| CCCCCCC(Sc1nc(Cl)cc(Nc2cccc(-c3ccccc3)c2)n1)C(=O)O (centres undefined) |  |  |  | IC50 [5]: 600 nM; IC50 (Prostaglandin E synthase [12]): 4000 nM |
| CCCCCC[C@H](Sc1nc(Cl)cc(Nc2nc(-c3ccc4ccccc4c3)cs2)n1)C(=O)O | 900 nM | 300 nM | 600 nM |  |
| CCCCCCC(Sc1nc(Cl)cc(Nc2nc(-c3ccc(Br)cc3)c(C)s2)n1)C(=O)O (centres undefined) | 200 nM | 1600 nM | 1300 nM | Ratio IC50 [4]: 8 |
| N[C@@H](CS)C(=O)O |  |  |  | Activity [13]: Active |
